# Measured values published in ChEMBL document CHEMBL5247665, “Improved synthesis and anticancer activity of a potent neuronal nitric oxide synthase inhibitor” (Bioorg Med Chem Lett, 2023).
# Assay: Toxicity in mouse at 10 mg/kg measured after 21 days
# Format: organism-based
# Conditions: in vivo, 504 h, time 21 day
compound,measurement,value
CNCc1cccc(CCc2ccc3c(C)cc(N)nc3c2)c1.Cl.Cl,Activity,Non-Toxic
